Measured values taken from patent US20230024096A1, “BIFUNCTIONAL COMPOUNDS FOR THE TREATMENT OF CANCER” (Hoffmann-La Roche Inc., priority 2019, published 2023).

Biological target: T1, SMARCA2 (Homo sapiens, UniProt P51531)
T1 construct: endogenous in cells; host or cells: HT1080 (CRISPR HiBiT knock-in clone, generated in house)
Assay: SMARCA2 HiBiT degradation assay (cellular)
Assay type: cell-based
Details: table head names A549; for DC50: 6 h incubation, HiBiT-tagged SMARCA2, luminescence read-out, read-out: HiBit A549 SMARCA2 IP (nM) 6 h; for Emax: A549, 6 h incubation, Emax = amount of residual protein remaining in the cell following compound treatment

T1 sequence (P51531 whole entry): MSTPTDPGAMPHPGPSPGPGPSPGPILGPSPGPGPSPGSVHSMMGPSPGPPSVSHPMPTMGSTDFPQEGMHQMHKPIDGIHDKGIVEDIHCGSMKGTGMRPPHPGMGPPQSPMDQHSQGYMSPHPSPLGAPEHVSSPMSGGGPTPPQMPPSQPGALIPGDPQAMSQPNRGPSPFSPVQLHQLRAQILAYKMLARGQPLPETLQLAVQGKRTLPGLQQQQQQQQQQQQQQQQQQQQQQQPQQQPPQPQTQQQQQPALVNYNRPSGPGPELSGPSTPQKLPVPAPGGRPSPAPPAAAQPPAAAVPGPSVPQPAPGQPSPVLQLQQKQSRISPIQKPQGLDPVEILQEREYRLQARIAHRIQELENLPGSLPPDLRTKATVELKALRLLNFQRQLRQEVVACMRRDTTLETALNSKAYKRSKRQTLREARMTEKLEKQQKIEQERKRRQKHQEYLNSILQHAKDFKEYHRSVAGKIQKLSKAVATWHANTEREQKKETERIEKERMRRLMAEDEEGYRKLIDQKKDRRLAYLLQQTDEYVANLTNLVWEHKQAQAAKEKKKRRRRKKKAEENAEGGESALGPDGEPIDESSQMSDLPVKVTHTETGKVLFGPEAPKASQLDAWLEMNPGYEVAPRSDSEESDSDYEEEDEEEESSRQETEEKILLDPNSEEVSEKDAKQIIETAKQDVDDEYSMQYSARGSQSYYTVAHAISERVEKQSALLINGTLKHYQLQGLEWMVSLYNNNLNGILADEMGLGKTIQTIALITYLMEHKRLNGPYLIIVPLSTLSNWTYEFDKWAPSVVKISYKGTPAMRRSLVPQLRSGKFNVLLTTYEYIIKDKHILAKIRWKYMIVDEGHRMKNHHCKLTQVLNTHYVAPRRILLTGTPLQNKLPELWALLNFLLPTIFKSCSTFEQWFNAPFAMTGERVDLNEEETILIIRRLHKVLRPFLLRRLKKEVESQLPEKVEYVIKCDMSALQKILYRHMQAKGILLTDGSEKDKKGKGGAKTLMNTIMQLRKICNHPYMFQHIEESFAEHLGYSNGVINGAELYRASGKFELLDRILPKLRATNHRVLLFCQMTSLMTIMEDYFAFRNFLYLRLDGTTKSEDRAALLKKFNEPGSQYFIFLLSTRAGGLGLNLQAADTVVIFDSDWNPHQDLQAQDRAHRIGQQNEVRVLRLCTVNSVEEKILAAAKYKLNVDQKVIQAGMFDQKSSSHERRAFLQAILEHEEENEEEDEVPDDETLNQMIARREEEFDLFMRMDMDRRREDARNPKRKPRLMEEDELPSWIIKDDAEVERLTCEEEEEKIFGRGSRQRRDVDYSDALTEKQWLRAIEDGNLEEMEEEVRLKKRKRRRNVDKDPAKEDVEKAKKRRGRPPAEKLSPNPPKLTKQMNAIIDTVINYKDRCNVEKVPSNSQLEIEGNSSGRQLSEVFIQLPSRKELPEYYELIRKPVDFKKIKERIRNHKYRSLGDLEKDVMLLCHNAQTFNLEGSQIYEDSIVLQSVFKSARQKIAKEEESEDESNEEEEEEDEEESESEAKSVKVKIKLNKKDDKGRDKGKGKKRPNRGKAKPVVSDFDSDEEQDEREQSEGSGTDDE

Compound	DC50	Emax
Nc1nnc(-c2ccccc2O)cc1N1CC2CCC(C1)N2c1cccc(OCCN2CCN(C(=O)CNC(=O)C3CCN(c4cccc5c4C(=O)N(C4CCC(=O)NC4=O)C5=O)CC3)CC2)c1 (racemic) [Example 18, rac-N-[2-[4-[2-[3-[3-[3-amino-6-(2-hydroxyphenyl)pyridazin-4-yl]-3,8-diazabicyclo[3.2.1]octan-8-yl]phenoxy]ethyl]piperazin-1-yl]-2-oxo-ethyl]-1-[2-(2,6-dioxo-3-piperidyl)-1,3-dioxo-isoindolin-4-yl]piperidine-4-carboxamide]	134 nM	62%
Nc1nnc(-c2ccccc2O)cc1N1CCC(CNC(=O)COc2ccc3c(c2)C(=O)N(C2CCC(=O)NC2=O)C3=O)(c2ccccc2)CC1 (centres unmarked) [Example 73, N-((1-(3-amino-6-(2-hydroxyphenyl)pyridazin-4-yl)-4-phenylpiperidin-4-yl)methyl)-2-((2-(2,6-dioxopiperidin-3-yl)-1,3-dioxoisoindolin-5-yl)oxy)acetamide]	114 nM	49%
Cc1c(C(=O)N2CCN(C(=O)C3CCN(c4ccc5c(c4)C(=O)N(C4CCC(=O)NC4=O)C5=O)CC3)CC2)cccc1N1C2CCC1CN(c1cc(-c3ccccc3O)nnc1N)C2 (racemic) [Example 116, rac-5-[4-[4-[3-[3-[3-amino-6-(2-hydroxyphenyl)pyridazin-4-yl]-3,8-diazabicyclo[3.2.1]octan-8-yl]-2-methyl-benzoyl]piperazine-1-carbonyl]-1-piperidyl]-2-(2,6-dioxo-3-piperidyl)isoindoline-1,3-dione]	58 nM	32%
Nc1nnc(-c2ccccc2O)cc1N1CC2CCC(C1)N2c1cccc(CN2CCN(CCOC3CCN(c4ccc5c(c4)C(=O)N(C4CCC(=O)NC4=O)C5=O)CC3)CC2)c1 (racemic) [Example 55, rac-5-[4-[2-[4-[[3-[3-[3-amino-6-(2-hydroxyphenyl)pyridazin-4-yl]-3,8-diazabicyclo[3.2.1]octan-8-yl]phenyl]methyl]piperazin-1-yl]ethoxy]-1-piperidyl]-2-(2,6-dioxo-3-piperidyl)isoindoline-1,3-dione]	19 nM	35%
Nc1nnc(-c2ccccc2O)cc1OC1CCCN(c2ccc(N3CCN(CCCCCCCCCn4cc(C5(Nc6cccc7c6C(=O)N(C6CCC(=O)NC6=O)C7=O)CC5)nn4)CC3)cc2)C1 (centres unmarked) [Example 90, 4-[[1-[1-[9-[4-[4-[3-[3-amino-6-(2-hydroxyphenyl)pyridazin-4-yl]oxy-1-piperidyl]phenyl]piperazin-1-yl]nonyl]triazol-4-yl]cyclopropyl]amino]-2-(2,6-dioxo-3-piperidyl)isoindoline-1,3-dione]	103 nM	37%
Nc1nnc(-c2ccccc2O)cc1N1CC2CCC(C1)N2c1cccc(OCCN2CCN(C(=O)CC3CCN(c4ccc5c(c4)C(=O)N(C4CCC(=O)NC4=O)C5=O)CC3)CC2)c1 (racemic) [Example 33, rac-5-[4-[2-[4-[2-[3-[3-[3-amino-6-(2-hydroxyphenyl)pyridazin-4-yl]-3,8-diazabicyclo[3.2.1]octan-8-yl]phenoxy]ethyl]piperazin-1-yl]-2-oxo-ethyl]-1-piperidyl]-2-(2,6-dioxo-3-piperidyl)isoindoline-1,3-dione]	15 nM	39%
Nc1nnc(-c2ccccc2O)cc1OC1CCCN(c2ccc(N3CCN(CCCCCCCCCc4ccnc(CNc5cccc6c5C(=O)N(C5CCC(=O)NC5=O)C6=O)c4)CC3)cc2)C1 (centres unmarked) [Example 139, 4-[[4-[9-[4-[4-[3-[3-amino-6-(2-hydroxyphenyl)pyridazin-4-yl]oxy-1-piperidyl]phenyl]piperazin-1-yl]nonyl]-2-pyridyl]methylamino]-2-(2,6-dioxo-3-piperidyl)isoindoline-1,3-dione]	802 nM	62%
